From patent publication US20200087625A1, “METHODS FOR ISOLATING, EXPANDING AND ADMINISTERING CANCER SPECIFIC CD8+ T CELLS” (priority 2017, published 2020)

Legend:
[1] = cited from earlier work
4T1 cells = assay: Secondary (orthotopic) 4T1 challenge after 1V270 therapy; type: in vivo, BALB/c mice
Text: FIGS. 24A-24G. Tumor infiltrating T cells in 1V270 treated mice show high clonalities and increased frequency of intra- and inter-individual common clones (A) Experimental protocols of the secondary challenge studies. Two groups of BALB/c mice (n=5/group) were i.p, treated with 1V270. One cohort of mice was i.v. injected with 4T1-GLF cells (2×10^4) on day 0 and tumor growth in the lungs was monitored by IVIS on day 20. […] Native BALB/c mice served as controls. 4T1 cells were orthotopically inoculated on day 21. (B) Tumor growth was measured with a caliper and calculated using the formula: volume (mm3)=(width)2×length/2. (C) TILs s were isolated from the secondarily challenged tumor on day 39 and stained for CD8^+ T cells (CD3^+CD8^+) and PD-1. The numbers of tumor-infiltrating cos• T cells were expressed per tumor volume (mm^3). Data are representative of 2 independent experiments showing similar results. Results were analyzed by the Mann-Whitney U test comparing the 1V270 treatment groups against the vehicle treated group. **P<0.01. (D·G) TCR repertoire of CD8^+ T cells from TILs s and splenocytes were examined. (D) The clonality index (1-normalized Shannon index) of CD8^+ T cells infiltrating to the left side of the secondarily challenged tumor was plotted against tumor volume in the tumor exposed mice. Correlation between the clonality index and the tumor volume was evaluated by Pearson's method (R^2=0.97, p<0.05).
FIGS. 26A-26D. Intranasally administered 1V270 inhibits pulmonary colonization in experimental metastasis models (A) Protocol for testing the therapeutic efficacy of i.n. treatment with 1V270 in IV metastasis model. BALB/c mice (n=6-8/group) were i.n. administered with 1V270 (20 or 200 μg) or vehicle on days −3, −1, 3, 7, and 10. 4T1 cells were v. injected on day 0. (B) The numbers of lung nodules were counted on Day 21. *P<0.05 calculated by Kruskal-Wallis test with Dunn's post hoc test. (C) Intranasal 1V270 therapy attenuated the growth of secondarily challenged tumors. BALB/c mice (n=S) were i.n. treated with 200 μg 1V270 on days −3, −1, 3, 7 and 10. 4T1 cells were injected on day 0. On day 21, the surviving mice were orthotopically inoculated with 4T1 cells and tumor growth was monitored. The mice treated with 1V270 without i.v. tumor cell injection served as controls. (D) TILs were isolated from the secondarily challenged tumor, and the numbers of CD8^+ T cells and PD-1 expressing CD8^+ T cells were analyzed by flow cytometric assay. Data were analyzed by the Mann-Whitney U test comparing two groups. *P<0.05. Data are representative of 2 independent experiments showing similar results.
In the spontaneous metastasis model, othotopically implanted tumor cells spontaneously form lung metastases within three weeks after implantation. 5×10^5 4T1 cells were inoculated in both sides of the 4th mammary pads of female BALB/c mice. Tumor length and width were recorded, and tumor volumes were calculated using the formula: volume (mm^3)=(width)^2×length/2. On day 28, mice were euthanized and the lungs were stained with intratracheally injected India ink and destained in Fekete's solution to count tumor nodules. In the experimental metastasis model, 2×10^4 4T1 cells were i.v. injected. On day 21, mice were euthanized and tumor nodules in lungs were counted as described above. In the secondary challenge experiment, 1V270 treated-mice without tumor signals in the lungs on day 21 of the experimental metastasis protocol were included. 5×10^5 4T1 cells were inoculated in both sides of the 4th mammary p ads. Tumor length and width were recorded, and tumor volumes were calculated similar with
To validate that 1V270 therapy induced tumor-specific adaptive immune responses, we monitored the growth of secondarily challenged tumors following prior 1V270 treatment. The mice treated with 1V270 using the IV metastasis protocol were orthotopically re-challenged with 4T1 cells on day 21 (FIG. 24A). […]

primary tumor = conditions: cited from earlier work
[2] = Serum cytokine analysis (Luminex) after systemic administration; type: in vivo, BALB/c mice; conditions: i.p. 185 nmol/injection; sera 2, 4, 6, 24 hours; 1V270 vs 1V136
Procedure: FIG. 36. […] BALB/c mice (n=5) were i.p. administered IV270 (200 μg=185 nmol/injection) or […] (58 μg=185 nmol/injection) and sera were collected 2, 4, 6, and 24 hours following the administration. The levels of TNFα, IL-12, and IP-IO were measured by Luminex assay. *P<0.05, **P<0.01 by two way ANOVA using a Bonferroni post hoc test comparing treatment groups.
The sera were collected from mice receiving […] of 1V136, 1V270 or vehicle 2, 4, 6, and 24 hours after i.p. administration (15). Cytokine levels in sera were determined by Luminex bead assays (MILLIPLEX™ MAP kit, Millip ore, Billerica, Mass.).

[3] = intranasal 1V270, tumor-exposed vs no tumor exposure or naive

SMILES: CCCCCCCCC=CCCCCCCCC(=O)OCC(COP(=O)(O)OCCNC(=O)c1ccc(Cn2c(=O)[nH]c3c(N)nc(OCCOC)nc32)cc1)OC(=O)CCCCCCCC=CCCCCCCCC (centres unmarked) [1V270]
- systemic cytokine release after intranasal administration [1]: without inducing systemic cytokine release
- numbers of CD8+ T cells in TILs (4T1 cells; 1V270-treated tumor-exposed vs 1V270-treated no-tumor exposed mice): Three-fold higher
- growth of secondarily challenged tumor (4T1 cells; i.p. 1V270-treated and tumor-exposed mice vs naive or no-tumor exposed mice): significantly impaired
- growth of secondarily challenged tumor (4T1 cells; i.p. 1V270-treated no-tumor exposed mice vs naive mice): no difference in the tumor growth
- re-challenged tumor growth (4T1 cells; intranasal 1V270, tumor-exposed mice): significantly inhibited
- number of CD8+ T cells in TILs (4T1 cells; [3]): A higher number
- number of PD-1+CD8+ T cells in TILs (4T1 cells; [3]): A higher number
- CD8+ T cells in TILs positive for PD-1 (4T1 cells; secondarily challenged tumor): more than 80%
- primary tumor growth (primary tumor; intratumoral administration): inhibits primary tumor growth
- systemic cytokine induction (primary tumor; local (intratumoral) treatment): without causing systemic cytokine induction
- serum cytokine induction (TNFα, IL-12, IP-10) [2]: significantly lower levels of cytokine induction
